The values that follow come from article PMC3638264 (Journal of Medicinal Chemistry, 2013).

The target in experiment [1] is T1, AKR1C2 (Homo sapiens, UniProt P52895).
T1 sequence (P52895 1-323): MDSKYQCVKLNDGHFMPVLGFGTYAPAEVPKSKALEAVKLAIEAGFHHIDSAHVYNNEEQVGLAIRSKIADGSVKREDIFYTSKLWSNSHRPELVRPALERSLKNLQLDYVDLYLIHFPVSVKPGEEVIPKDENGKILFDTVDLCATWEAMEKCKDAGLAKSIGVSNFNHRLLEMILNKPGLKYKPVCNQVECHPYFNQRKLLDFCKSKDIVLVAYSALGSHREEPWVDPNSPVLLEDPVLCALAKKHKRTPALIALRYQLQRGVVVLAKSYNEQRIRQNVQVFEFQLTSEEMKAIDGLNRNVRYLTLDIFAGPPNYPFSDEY
Description: AKR1C2 inhibition, NADP+ dependent oxidation of S-tetralol. Particulars: for IC50 Ratio 1C2/1C3: selectivity for AKR1C3 over AKR1C2.

Experiment [2] addresses T2, AKR1C3 (Homo sapiens, UniProt P42330).
T2 sequence (P42330 1-323): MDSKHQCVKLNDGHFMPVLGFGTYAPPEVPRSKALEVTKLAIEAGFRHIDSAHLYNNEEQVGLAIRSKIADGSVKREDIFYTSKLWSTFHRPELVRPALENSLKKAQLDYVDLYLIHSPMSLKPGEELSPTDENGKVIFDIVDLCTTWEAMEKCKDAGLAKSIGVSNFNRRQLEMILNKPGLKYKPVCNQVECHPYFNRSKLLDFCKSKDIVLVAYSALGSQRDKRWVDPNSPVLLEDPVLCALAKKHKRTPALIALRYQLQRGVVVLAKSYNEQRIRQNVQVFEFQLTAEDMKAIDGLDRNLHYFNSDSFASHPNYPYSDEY
Description: AKR1C3 inhibition, NADP+ dependent oxidation of S-tetralol. To be noted: for loss of AKR1C3 potency: relative to 44; for loss of inhibitory potency for AKR1C3: relative to indomethacin (1).

The target in experiment [3] is T3, ovine COX-1 (Ovis aries, UniProt P05979).
T3 sequence (P05979 25-600): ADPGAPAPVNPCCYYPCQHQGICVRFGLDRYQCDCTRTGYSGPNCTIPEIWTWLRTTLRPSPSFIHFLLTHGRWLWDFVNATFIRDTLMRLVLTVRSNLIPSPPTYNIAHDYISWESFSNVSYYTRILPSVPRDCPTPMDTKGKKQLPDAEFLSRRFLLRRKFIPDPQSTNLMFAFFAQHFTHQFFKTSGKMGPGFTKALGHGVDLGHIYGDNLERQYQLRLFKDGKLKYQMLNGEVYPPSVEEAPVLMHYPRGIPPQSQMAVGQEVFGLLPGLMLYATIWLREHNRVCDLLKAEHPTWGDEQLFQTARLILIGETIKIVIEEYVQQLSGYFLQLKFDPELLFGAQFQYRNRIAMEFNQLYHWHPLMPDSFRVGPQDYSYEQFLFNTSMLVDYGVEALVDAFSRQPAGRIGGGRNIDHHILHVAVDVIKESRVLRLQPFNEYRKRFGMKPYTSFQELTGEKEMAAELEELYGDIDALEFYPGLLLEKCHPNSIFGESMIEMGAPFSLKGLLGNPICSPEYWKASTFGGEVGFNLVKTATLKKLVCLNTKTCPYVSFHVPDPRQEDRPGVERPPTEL
The experiment is described as follows: discontinuous 14C-AA TLC-based COX assay, COX-1. Particulars: for inhibition at 25 µM: read-out: oCOX 1 % inhib. @ 25 μM, 25 μM inhibitor, 5 μM AA.

For experiment [4], the target named is T4, mouse COX-2 (Mus musculus, UniProt Q05769).
T4 sequence (Q05769 18-604): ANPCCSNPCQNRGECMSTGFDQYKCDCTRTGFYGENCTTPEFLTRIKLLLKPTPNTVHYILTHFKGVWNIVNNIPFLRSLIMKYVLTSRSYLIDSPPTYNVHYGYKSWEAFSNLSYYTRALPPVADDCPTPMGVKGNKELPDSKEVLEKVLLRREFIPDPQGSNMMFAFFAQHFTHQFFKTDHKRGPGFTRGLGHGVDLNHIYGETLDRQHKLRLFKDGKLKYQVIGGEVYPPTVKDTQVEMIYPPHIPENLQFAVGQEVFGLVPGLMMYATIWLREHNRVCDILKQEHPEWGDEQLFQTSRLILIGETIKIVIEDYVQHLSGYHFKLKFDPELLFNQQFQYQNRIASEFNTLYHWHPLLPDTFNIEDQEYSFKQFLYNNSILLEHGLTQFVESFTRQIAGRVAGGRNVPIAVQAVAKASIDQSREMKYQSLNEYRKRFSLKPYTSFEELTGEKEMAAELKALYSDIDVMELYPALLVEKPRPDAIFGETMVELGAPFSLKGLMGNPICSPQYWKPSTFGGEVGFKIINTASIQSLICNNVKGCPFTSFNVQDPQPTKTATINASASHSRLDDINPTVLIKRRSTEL
The experiment is described as follows: discontinuous 14C-AA TLC-based COX assay, COX-2. To be noted: for wt mCOX 2 plateau of inhibition (P @ %): plateau at higher inhibitor concentrations; for inhibition at 25 µM: read-out: wt mCOX 2 % inhib. @ 25 μM, 25 μM inhibitor, 5 μM AA.

The target of experiment [5] is T5, oCOX-1 (Ovis aries, UniProt P05979).
T5 sequence (P05979 25-600): T3 sequence (P05979 25-600)
The experiment is described as follows: continuous colorimetric COX-1 assay. It is filed as biochemical, ovine. Particulars: for inhibitory activity on COX-1 at highest concentration tested: 100 μM inhibitor.

Experiment [6] concerns LNCaP-AKR1C3 cells. The experiment is described as follows: inhibition of testosterone formation in LNCaP-AKR1C3 cells. In kind it is cell-based. Particulars: 30 μM inhibitor, 0.1 μM Δ4-AD, 48 h.

Consider `CCC(=O)Cc1cn(C(=O)OC)c2ccc(OC)cc12` [Compound 43], for which the “IC50 Ratio 1C2/1C3” value in experiment [1] is listed as above 4.

Regarding `COc1ccc2c(c1)c(C)c(CC(C)C(=O)O)n2C(=O)c1ccc(Cl)cc1` (stereo not drawn) [Compound 49, 3-(1-(4-Chlorobenzoyl)-5-methoxy-3-methyl-1H-indol-2-yl)-2-methylpropanoic Acid], the “loss of AKR1C3 potency” value in experiment [2] was 2 fold.

Regarding `COC(=O)Cc1c(C)n(C(=O)c2ccc(Cl)cc2)c2ccc(OC)cc12` [Compound 10], the “loss of inhibitory potency for AKR1C3” value in experiment [2] was 57 fold. For the compound `COC(=O)Cc1c(C)n(C(=O)c2ccc(OC)cc2)c2ccc(OC)cc12` [Compound 13], the “IC50 Ratio 1C2/1C3” value in experiment [1] is recorded as above 12. Take `COc1ccc2c(c1)c1c(n2C(=O)c2ccc(Cl)cc2)CC(C(=O)O)CC1` (stereo not drawn) [Compound 64, 9-(4-Chlorobenzoyl)-6-methoxy-2,3,4,9-tetrahydro-1H-carbazole-2-carboxylic Acid]: inhibition in experiment [3] was half-maximal at 2400 nM (IC50). Further, the “oCOX 1 plateau of inhibition (P @ %)” value in experiment [3] (plateau at higher inhibitor concentrations) is 56.1%. Also, in experiment [4], the IC50 (as a rule, the concentration needed to halve the response being measured) was 1480 nM and the “wt mCOX 2 plateau of inhibition (P @ %)” value was 62.6%. For the compound `COc1ccc2c(c1)cc(C)n2C(=O)c1ccc(Cl)cc1` [Compound 19], the “loss of inhibitory potency for AKR1C3” value in experiment [2] was 36 fold.

Consider `COc1ccc2c(c1)c(CC(=O)O)cn2C(=O)c1ccc(Cl)cc1` [Compound 20, 2-(1-(4-Chlorobenzoyl)-5-methoxy-1H-indol-3-yl)acetic Acid], for which, in experiment [2], the “slope factor of inhibition dose–response curve” value stood at 1. With `COc1ccc2c(c1)c(CCC(=O)O)c(C)n2C(=O)c1ccc(Cl)cc1` [Compound 16, 3-(1-(4-Chlorobenzoyl)-5-methoxy-2-methyl-1H-indol-3-yl)propanoic Acid], the IC50 in experiment [5] is 48800 nM. This counts as double-digit micromolar.

Take `COc1ccc2c(c1)c(C)c(CCC(=O)NS(C)(=O)=O)n2C(=O)c1ccc(Cl)cc1` [Compound 50, 3-(1-(4-Chlorobenzoyl)-5-methoxy-3-methyl-1H-indol-2-yl)-N-(methylsulfonyl)propanamide]: in experiment [5], the IC50 is above 100000 nM and the “inhibitory activity on COX-1 at highest concentration tested” value was “did not display significant inhibitory activity”. Moreover, the “inhibition of testosterone formation” value in experiment [6] is reported as “robust inhibition”. Moreover, in experiment [3], the inhibition at 25 µM is at most 34%. In experiment [4], the inhibition at 25 µM is at most 34%. In experiment [2], the “loss of AKR1C3 potency” value is 3 fold.

For `COc1ccc2c(c1)c(CC(=O)NS(C)(=O)=O)c(C)n2C(=O)c1ccc(Cl)cc1` [Compound 14, 2-(1-(4-Chlorobenzoyl)-5-methoxy-2-methyl-1H-indol-3-yl)-N-(methylsulfonyl)acetamide], the “loss of inhibitory potency for AKR1C3” value in experiment [2] is on record as 22 fold. For the compound `COc1ccc2c(c1)c1c(n2C(=O)c2ccc(Cl)cc2)CCC(C(=O)NS(C)(=O)=O)C1` (stereo not drawn) [Compound 63, 9-(4-Chlorobenzoyl)-6-methoxy-N-(methylsulfonyl)-2,3,4,9-tetrahydro-1H-carbazole-3-carboxamide], in experiment [1], the “selectivity for AKR1C3 over AKR1C2” value worked out at 20 fold and the “IC50 Ratio 1C2/1C3” value is listed as above 20.

`COc1ccc2c(c1)c1c(n2C(=O)c2ccc(Cl)cc2)CCC(C(=O)O)C1` (stereo not drawn) [Compound 61, 9-(4-Chlorobenzoyl)-6-methoxy-2,3,4,9-tetrahydro-1H-carbazole-3-carboxylic Acid] came in with a concentration for half-maximal inhibition (IC50) in experiment [5] of 750 nM. The “wt mCOX 2 plateau of inhibition (P @ %)” value in experiment [4] is 61.4%. In the case of `COc1ccc(C(=O)n2c(C)c(CC(=O)O)c3cc(OC)ccc32)cc1` [Compound 4], the “selectivity for AKR1C3 over AKR1C2” value in experiment [1] was “over 300 fold”. Take `CCc1c(CCC(=O)O)n(C(=O)c2ccc(Cl)cc2)c2ccc(OC)cc12` [Compound 47, 3-(1-(4-Chlorobenzoyl)-3-ethyl-5-methoxy-1H-indol-2-yl)propanoic Acid]: the inhibition at 25 µM in experiment [4] is at most 34%. In the case of `COc1ccc2c(c1)c(C)c(CCC(=O)O)n2C(=O)c1ccc(Cl)cc1` [Compound 44, 3-(1-(4-Chlorobenzoyl)-5-methoxy-3-methyl-1H-indol-2-yl)propanoic Acid], in experiment [5], the IC50 was above 100000 nM and the “inhibitory activity on COX-1 at highest concentration tested” value is “did not display significant inhibitory activity”. Further, the “inhibition of testosterone formation” value in experiment [6] is reported as “robust inhibition”. The inhibition at 4 µM in experiment [4] (read-out: wt mCOX 2 % inhib. @ 4 μM, 4 μM inhibitor, 5 μM AA) is below 18%. In addition, in experiment [4], the inhibition at 25 µM was at most 34%. Turning to `COc1ccc2c(c1)c(CC(=O)O)c(C)n2C(=O)c1ccc(Cl)cc1` [Compound 1, 2-(1-(4-chlorobenzoyl)-5-methoxy-2-methyl-1H-indol-3-yl)acetic acid, reference compound], the “inhibition of testosterone formation” value in experiment [6] was “robust inhibition”. On to `COc1ccc2c(c1)c(C)c(CC(C)(C)C(=O)O)n2C(=O)c1ccc(Cl)cc1` [Compound 48, 3-(1-(4-Chlorobenzoyl)-5-methoxy-3-methyl-1H-indol-2-yl)-2,2-dimethylpropanoic Acid], for which the inhibition at 25 µM in experiment [3] and in experiment [4] was at most 34% throughout. `O=C(O)Cc1cn(C(=O)c2ccc(Cl)cc2)c2ccc(F)cc12` [Compound 25]: in experiment [1] (relative to des-methyl-indomethacin (20)), the “increase in AKR1C2 inhibitory potency” value is reported as 4 fold. Regarding `COc1ccc2c(c1)c(CC(=O)O)cn2C(=O)c1ccc(F)cc1` [Compound 22], in experiment [1], the “IC50 Ratio 1C2/1C3” value is above 20. On to `COc1ccc2c(c1)c(CC(=O)NS(=O)(=O)C(F)(F)F)cn2C(=O)c1ccc(Cl)cc1` [Compound 27, 2-(1-(4-Chlorobenzoyl)-5-methoxy-1H-indol-3-yl)-N-((trifluoromethyl)sulfonyl)acetamide], for which, in experiment [5], the IC50 came out at 2190 nM. For `COC(=O)Cc1cn(C(=O)c2ccc(Cl)cc2)c2ccc(OC)cc12` [Compound 21], the “IC50 Ratio 1C2/1C3” value in experiment [1] was above 8.
